Consider three molecules from US3969419A, “3-(2-Halo-4-biphenylyl)-1-butanols and derivatives thereof” (Boehringer Ingelheim GmbH, priority 1973, dated 1976).

Molecules are shown by their SMILES. Like-named read-outs stand apart in the source and are kept apart here.

Data set [1] has as its system kaolin edema of the hind paws of the rat. The experiment in a line: anti-exudative effect on the kaolin edema of the hind paws of the rat. Type of data set: in vivo, rat (male FW 49). To be noted: per os 30 minutes before inducement of edema, swelling at 5 hours, dose leading to 35% reduction of the swelling, graphic extrapolation. As for the experimental part:
(§1) The compounds were tested for their anti-exudative effects on the kaolin edema and carrageenin edema of the hind paws of the rat, for their ulcerogenicity and for their acute toxicity by oral administration to rats.
(§2) The kaolin edema was induced according to the method of Hillebrecht [Arzneimittel-Forsch. 4, 607 (1954) ] by subplantary injection of 0.05 ml of a 10% suspension of kaolin in a 0.85% sodium chloride solution. The measurement of the thickness of the paws was done by using the technique of Doepfner and Cerletti (Int. Arch. Allergy, Immunol. 12, 89 (1958)).
(§3) Male FW 49-rats of an average weight of 120-150 gm were orally treated with the test compounds 30 minutes before inducement of the edema with the aid of a esophageal tube. Five hours after the provocation of the edema the averaged values of the swelling caused in the paws of the rats treated with the test compounds were compared with those values measured on blind-treated control animals. By graphic extrapolation the dose leading to a 35% reduction of the swelling (ED35) was calculated from the percent reduction values measured by administration of different doses.

A further data set is described as follows: in vivo. Particulars: po; for selectivity ratio: quotient of ulcerogenic ED50 and average antiexudative ED35, rat, per os, read-out: Therapeutic index: Ratio of ulcerogenic activity to antiexudative activity ED50/ED35; for TD50: rat. As to the method:
as §1
The tests for ulcerogenic activity were effected on FW 49-rats of both sexes (ratio 1:1) having a body weight of 130 to 150 gm. The animals were given the substances on three subsequent days, once each day, as a trituration in tylose by way of an esophageal tube.
The animals were killed four hours after the last administration; the stomach and duodenal mucosa were investigated for ulcers.
From the percentage of animals showing at least one ulcer after administration of different doses, the ED50 -value was calculated according to the method of Litchfield and Wilcoxon [J. Pharmacol. exp. Therap. 96, 99 (1949) ].
(§4) The therapeutic indices, as a measure for the therapeutic usefulness, were calculated by forming the quotient of the ED50 -value for the ulcerogenicity or of th LD50 -value and the ED35 -value derived from the tests for anti-exudative activity against the kaolin and carrageenin edema.

Data set [2] in a line: acute toxicity by oral administration to rats. Type of data set: in vivo. Particulars: in vivo, po; for selectivity ratio: quotient of LD50 and average anti-exudative ED35, rat, per os, read-out: Therapeutic ratio LD50/aver.ED35; for LD50 at 336 h: rat, per os as trituration in tylose, deaths within 14 days, Litchfield and Wilcoxon. As to the method: as §1
(§5) After oral administration to male and female FW 49-rats (ratio 1:1) having an average body weight of 135 gm, the acute toxicity (LD50) was determined. The substances were administered orally as a trituration in tylose.
(§6) The calculation of the LD50 -values was effected, as far as possible, according to the method of Litchfield and Wilcoxon, based on the percentage of animals which died within 14 days after administration of the different doses.
as §4

Data set [3] has as its system carrageenin edema of the hind paws of the rat. The experiment in a line: anti-exudative effect on the carrageenin edema of the hind paws of the rat. The class given is in vivo, rat (male FW 49). Particulars: per os 60 minutes before provocation of edema, measured 3 hours after, dose leading to 35% reduction of the swelling. As to the method:
as §1
(§7) The provocation of the carrageenin edema was effected according to the method of Winter et al. [Proc. Soc. exp. Biol. Med. 111, 544 (1962) ] by subplantary injection of 0.05 ml of a 1% solution of carrageenin in a 0.85% solution of sodium chloride. The test compounds were orally administered 60 minutes before the provocation of the edema.
(§8) For the calculation of the reductive effect on the edema, the values measured three hours after the provocation of the edema were used. All the other details were the same as described above in the case of the kaolin edema.

Data set [4] concerns kaolin and carrageenin edema of the hind paws of the rat. Nature of the data set: average anti-exudative (antiphlogistic) activity against kaolin and carrageenin edema. The class given is in vivo, rat (male FW 49). Particulars: per os, for C only from carrageenin edema. As for the experimental part:
The compounds of the present invention were tested for antiphlogistic activity, ulcerogenic activity and acute toxicity in the manner described below, and representative results of these tests are shown in the tables, where
as §1, §2, §3, §7, §8, §4

Another data set deals with rat. Nature of the data set: acute toxicity by oral administration to rats. The class given is in vivo. Particulars: rat, per os, at 1600 mgm/kg, within 14 days. As for the experimental part: as §1, §5, §6, §4
[5] abbreviates: Table I, average of kaolin and carrageenin edema, read-out: Average anti-exudative ED35 per os.
[6] abbreviates: Table II, read-out: Average antiexudative ED35.

Consider `CC(CCO)c1ccc(-c2ccccc2)c(F)c1` (stereo not drawn) [A, 3-(2-fluoro-4-biphenylyl)-1-butanol], for which the ED35 in data set [1] was 17 mg/kg; in data set [3], 8.5 mg/kg; in data set [4] (setting [5]), 12.8 mg/kg; in data set [4] (setting [6]), 12.8 mg/kg. Besides, the selectivity ratio was 2.39 in “in vivo” and 64.7 in data set [2]. The TD50 in the data set “in vivo” was found to be 30.5 mg/kg. The LD50 at 336 h in data set [2] was determined as 825 mg/kg.

In the case of `CC(CCOC(=O)c1ccncc1)c1ccc(-c2ccccc2)c(F)c1.Cl` (stereo not drawn) [B, 3-(2-fluoro-4-biphenylyl)-1-butyl isonicotinate hydrochloride], the ED35 in data set [1] is 20 mg/kg; in data set [3], 13 mg/kg; in data set [4] (setting [5]), 16.5 mg/kg; in data set [4] (setting [6]), 16.5 mg/kg. The values for the selectivity ratio (in “in vivo”; in data set [2]) were 3.7 and 92.7, respectively. For the same molecule, the TD50 in “in vivo” was 61 mg/kg. The molecule further came in with an LD50 at 336 h in data set [2] of 1530 mg/kg.

As to `CC(CCO)c1ccc(-c2ccccc2)c(Cl)c1` (stereo not drawn) [C, 3-(2-chloro-4-biphenylyl)-1-butanol], the selectivity ratio in “in vivo” is 2.15; in data set [2], above 94.1. Moreover, the TD50 in “in vivo” is 36.6 mg/kg. The molecule further gave an LD50 at 336 h in data set [2] above 1600 mg/kg. Moreover, the animals died with rat was 1 out of 10. Also, the ED35 in data set [3], in data set [4] (setting [5]) and in data set [4] (setting [6]) was 17 mg/kg throughout.
